According to ChEMBL document CHEMBL5357054, “Expanding the Chemical Diversity of Grisechelins via Heterologous Expression” (2024):
≈ marks a conversion by molar mass, not a printed value. Calls of active or inactive are those of the source. The rule behind the calls is not given here.

Legend:
Acinetobacter baumannii = test: Antibacterial activity against Acinetobacter baumannii ATCC 19606 incubated for 24 hrs by broth microdilution method; format: functional, organism-based
[1] = system: Mycobacterium tuberculosis; test: Antibacterial activity against autoluminescent Mycobacterium tuberculosis H37Ra by 7H9 broth based assay; format: functional
Staphylococcus aureus = test: Antibacterial activity against methicillin resistant Staphylococcus aureus ATCC 43300 incubated for 24 hrs by broth microdilution method; format: functional, organism-based

Row | SMILES | Activity (Acinetobacter baumannii) | Activity [1] | Activity (Staphylococcus aureus) | MIC [1]
1 | CC(=O)/C=C/c1csc(-c2nc3ccc(Cl)cc3c(Cl)c2O)n1 | inactive | inactive | inactive | –
2 | O=C(O)c1nc2ccc(Cl)cc2cc1O | inactive | inactive | inactive | –
3 | OCc1csc(-c2nc3ccccc3cc2O)n1 | inactive | inactive | inactive | –
4 | NC(=O)[C@@H]1CSC(c2csc(-c3nc4ccccc4cc3O)n2)=N1 | inactive | inactive | inactive | –
5 | O=C(OCc1csc(-c2nc3ccc(Cl)cc3c(Cl)c2O)n1)c1ccccc1O | inactive | inactive | inactive | –
6 | OCc1csc(-c2nc3ccccc3c(Cl)c2O)n1 | inactive | inactive | inactive | –
7 | NC(=O)[C@@H]1CSC(c2csc(-c3nc4ccc(Cl)cc4cc3O)n2)=N1 | inactive | inactive | inactive | –
8 | OCc1csc(-c2nc3ccc(Cl)cc3c(Cl)c2O)n1 | – | – | – | 8 µg/mL (≈ 24.5 µM)
9 | NC(=O)c1nc2ccc(Cl)cc2c(Cl)c1O | inactive | inactive | inactive | –
10 | NC(=O)c1csc(-c2csc(-c3nc4ccccc4c(Cl)c3O)n2)n1 | inactive | inactive | inactive | –
